Results from patent US11679104B2, “Compositions and methods of enhancing the homing and/or engraftment of hematopoietic cells in the central nervous system” (Duke University, priority 2017, dated 2023).
“Also recorded” adds a separate entry of the source.

Test system: microglia
Assay: BMT with UBC-GFP bone marrow followed by PLX5622 chow: beMφ engraftment into the brain
Format: in vivo, mice
Settings: for GFP+ beMφ engraftment in the brain: 1 week recovery, 6 weeks standard chow
Source text: Mice were γ-irradiated with a lethal dose of 1000 rad. Four hours post irradiation, mice were intravenously injected with 5×10^6 bone marrow cells. Mice were given water supplemented with trimethoprim-sulfamethoxazole for two weeks and monitored daily for the first 4 days. A lead shield was placed over the head during irradiation in some experiments, as indicated.
To determine transcriptional and morphological changes of microglia and beMφ to an insult, mice were given a peripheral LPS challenge. Mice were first irradiated and given BMT with UBC-GFP bone marrow. To target microglia, head shielding was applied during irradiation in some mice. After 1 week of recovery, mice were treated with PLX 5622 for 2 weeks to deplete the brain macrophage niche then placed on standard chow for 6 weeks. Mice were injected with 50 μg LPS or saline (i.p.). 6 hours later, brains were removed and macrophages sorted by MACS on CD11B beads as described above.
We utilized the Csf1r inhibitor PLX5622 in chow, to eliminate irradiation-damaged, yet still viable, microglia. Mice were given BMT with UBC-GFP bone marrow with or without head covering during irradiation, followed by 1 week of recovery, 2 weeks of chow containing PLX5622, and finally 6 weeks of recovery on standard chow.
Our third model (see Example 2) was designed to take advantage of the synergistic effect on engraftment we had observed with the combination of CNS irradiation and Csf1r deletion in microglia. Instead of Csf1r deletion using our genetic model, we utilized the Csf1r inhibitor PLX5622 in chow, to eliminate the irradiation-damaged, yet still viable, microglia. Mice were given BMT with UBC-GFP bone marrow with or without head covering during irradiation, followed by 1 week of recovery, 2 weeks of chow containing PLX5622, and finally 6 weeks of recovery on standard chow. […] Due to the robust level of engraftment in this model, we sorted GFP+ beMφ from whole body irradiated mice and GFP microglia from head covered mice for RNA-seq. Mice were injected i.p. with saline or LPS 6 hours prior to cell collection. Microglia and beMφ were FACS sorted from mice with or without head-covering, respectively, and then RNA-seq followed by differential expression analysis was performed (n=3 microglia samples, pooled from 3 total mice for each sample, and n=3 beMφ samples, pooled from 3 total mice for each sample; performed once).

COc1ncc(F)cc1CNc1ccc(Cc2c[nH]c3ncc(C)cc23)c(F)n1 [PLX5622]
GFP+ beMφ engraftment in the brain (BMT with head covering during irradiation, 2 weeks PLX5622 chow): minimal GFP+ beMφ engraftment | repopulation of the CNS with endogenous microglia (BMT with head covering during irradiation, 2 weeks PLX5622 chow, then 6 weeks standard chow): effectively repopulated the CNS with endogenous microglia | GFP+ beMφ engraftment in the brain (BMT with whole body irradiation, 2 weeks PLX5622 chow): robust engraftment of GFP+ beMφ; also recorded: robust engraftment of GFP+ beMϕ | repopulation of microglia by beMφ (system of BMT and PLX5622 treatment for beMφ engraftment): substantial repopulation of microglia by beMϕ | potentiation of engraftment of hematopoietic-derived macrophages into the brains of mice (used as part of a protocol that clears the microglial niche): can potentiate engraftment
